Experimental data as given in ChEMBL document CHEMBL1141499, “Imidazopyridines: a novel class of hNav1.7 channel blockers” (Bioorg Med Chem Lett, 2008).
One block for each molecule: values may come before it.

Assays:
[1] = Plasma clearance in Sprague-Dawley rat at 1.0 mg/kg, iv or 3.0 mg/kg, po; assay type: ADME, organism-based
[2] = Bioavailability in Sprague-Dawley rat at 3.0 mg/kg, po; assay type: ADME, organism-based; conditions: in vivo

SMILES: CC(C)(C)OC(=O)N[C@H](Cc1ccccc1C(F)(F)F)C(=O)NCc1nc2cccnc2n1C(C)(C)C
clearance [1]: 36 mL/min/kg
bioavailability [2]: 31%

SMILES: CC(C)(C)OC(=O)N[C@H](Cc1ccccc1C(F)(F)F)C(=O)NCc1nc2cccnc2n1CC(F)(F)F
clearance [1]: 113 mL/min/kg
bioavailability [2]: 7%

SMILES: CC(C)(C)OC(=O)N[C@H](Cc1ccccc1C(F)(F)F)C(=O)NCc1nc2cccnc2n1CC(F)(F)C(F)(F)F
clearance [1]: 87 mL/min/kg
bioavailability [2]: 10%

SMILES: CC(C)(C)OC(=O)N[C@H](Cc1ccccc1C(F)(F)F)C(=O)NCc1nc2cccnc2n1CC1CC1
clearance [1]: 114 mL/min/kg
bioavailability [2]: 25%

SMILES: CC(C)(C)Cn1c(CNC(=O)[C@@H](Cc2ccccc2C(F)(F)F)NC(=O)OC(C)(C)C)nc2cccnc21
clearance [1]: 64 mL/min/kg
bioavailability [2]: 17%

The remaining lines, values ahead:

clearance [1]: 21 mL/min/kg
bioavailability [2]: 36%
SMILES: C[C@@H](c1ccccc1)n1c(CNC(=O)[C@@H](Cc2ccccc2C(F)(F)F)NC(=O)OC(C)(C)C)nc2cccnc21

clearance [1]: 7.5 mL/min/kg
bioavailability [2]: 47%
SMILES: CC(C)(C)OC(=O)N[C@H](Cc1ccccc1F)C(=O)NCc1nc2cccnc2n1C1(c2ccccc2)CC1

clearance [1]: 9.3 mL/min/kg
bioavailability [2]: 78%
SMILES: O=C(NCc1nc2cccnc2n1C1(c2ccccc2)CC1)[C@@H](Cc1ccccc1Cl)NC(=O)C1(C(F)(F)F)CC1

clearance [1]: 15 mL/min/kg
bioavailability [2]: 41%
SMILES: CC(C)(C)OC(=O)N[C@H](Cc1ccccc1C(F)(F)F)C(=O)NCc1nc2cccnc2n1Cc1ccccc1

clearance [1]: 3 mL/min/kg
bioavailability [2]: 44%
SMILES: CC(C)(C)OC(=O)N[C@H](Cc1ccccc1C(F)(F)F)C(=O)NCc1nc2cccnc2n1C1(c2ccccc2)CC1

clearance [1]: 22 mL/min/kg
bioavailability [2]: 57%
SMILES: C[C@H](c1ccccc1)n1c(CNC(=O)[C@@H](Cc2ccccc2C(F)(F)F)NC(=O)OC(C)(C)C)nc2cccnc21

clearance [1]: 6.6 mL/min/kg
bioavailability [2]: 85%
SMILES: O=C(NCc1nc2cccnc2n1C1(c2ccccc2)CC1)[C@@H](Cc1c(F)ccc(F)c1F)NC(=O)C1(C(F)(F)F)CC1

clearance [1]: 4.2 mL/min/kg
bioavailability [2]: 54%
SMILES: O=C(NCc1nc2cccnc2n1C1(c2ccccc2)CC1)[C@@H](Cc1c(F)cccc1F)NC(=O)C1(C(F)(F)F)CC1
